± gives the expanded uncertainty stated by the source.

A short description of one data set: activity coefficient (dimensionless); of the first substance listed, at infinite dilution; xn = mol fraction of the nth substance listed. To be noted: 373.15 K; 101 kPa; Liquid; Chromatography; x1 = 0.
Turning to `c1ccccc1` [benzene] + CCCCCCCCCCCCCCCCCCC(CCCCCCCCCCCCCCCCCC)CCCCC(CCCCCCCCCCCCCCCCCC)CCCCCCCCCCCCCCCCCC, the activity coefficient came out at 0.269 ± 0.036.
Regarding `CCCCc1ccccc1` [butylbenzene] + CCCCCCCCCCCCCCCCCCC(CCCCCCCCCCCCCCCCCC)CCCCC(CCCCCCCCCCCCCCCCCC)CCCCCCCCCCCCCCCCCC, the activity coefficient was 0.357 ± 0.035.
Same read-out and setting: the result for `C[C@@H]1CCCC[C@@H]1C` [cis-1,2-dimethylcyclohexane] + CCCCCCCCCCCCCCCCCCC(CCCCCCCCCCCCCCCCCC)CCCCC(CCCCCCCCCCCCCCCCCC)CCCCCCCCCCCCCCCCCC reads 0.271 ± 0.036; that for `C[C@H]1CC[C@@H](C)CC1` [cis-1,4-dimethylcyclohexane] + CCCCCCCCCCCCCCCCCCC(CCCCCCCCCCCCCCCCCC)CCCCC(CCCCCCCCCCCCCCCCCC)CCCCCCCCCCCCCCCCCC, 0.287 ± 0.036; that for `C1CC[C@H]2CCCC[C@H]2C1` [cis-decahydronaphthalene] + CCCCCCCCCCCCCCCCCCC(CCCCCCCCCCCCCCCCCC)CCCCC(CCCCCCCCCCCCCCCCCC)CCCCCCCCCCCCCCCCCC, 0.268 ± 0.036.
In the case of `C1CCCCCCCCC1` [cyclodecane] + CCCCCCCCCCCCCCCCCCC(CCCCCCCCCCCCCCCCCC)CCCCC(CCCCCCCCCCCCCCCCCC)CCCCCCCCCCCCCCCCCC, the activity coefficient was 0.269 ± 0.036.
The same measure, in the same setting: then `C1CCCCCC1` [cycloheptane] + CCCCCCCCCCCCCCCCCCC(CCCCCCCCCCCCCCCCCC)CCCCC(CCCCCCCCCCCCCCCCCC)CCCCCCCCCCCCCCCCCC, with 0.252 ± 0.036; and `C1CCCCC1` [cyclohexane] + CCCCCCCCCCCCCCCCCCC(CCCCCCCCCCCCCCCCCC)CCCCC(CCCCCCCCCCCCCCCCCC)CCCCCCCCCCCCCCCCCC, with 0.25 ± 0.036.
Same read-out and setting: the result for `C1=CCCCC1` [cyclohexene] + CCCCCCCCCCCCCCCCCCC(CCCCCCCCCCCCCCCCCC)CCCCC(CCCCCCCCCCCCCCCCCC)CCCCCCCCCCCCCCCCCC reads 0.239 ± 0.036; that for `C1CCCCCCC1` [cyclooctane] + CCCCCCCCCCCCCCCCCCC(CCCCCCCCCCCCCCCCCC)CCCCC(CCCCCCCCCCCCCCCCCC)CCCCCCCCCCCCCCCCCC, 0.258 ± 0.036.

The same data set, now with this note: 388.15 K; 101 kPa; Liquid; Chromatography; x1 = 0.
Regarding `c1ccccc1` [benzene] + CCCCCCCCCCCCCCCCCCC(CCCCCCCCCCCCCCCCCC)CCCCC(CCCCCCCCCCCCCCCCCC)CCCCCCCCCCCCCCCCCC, the activity coefficient was determined as 0.266 ± 0.036.
Same read-out and setting: then `CCCCc1ccccc1` [butylbenzene] + CCCCCCCCCCCCCCCCCCC(CCCCCCCCCCCCCCCCCC)CCCCC(CCCCCCCCCCCCCCCCCC)CCCCCCCCCCCCCCCCCC, with 0.362 ± 0.035; and `C[C@@H]1CCCC[C@@H]1C` [cis-1,2-dimethylcyclohexane] + CCCCCCCCCCCCCCCCCCC(CCCCCCCCCCCCCCCCCC)CCCCC(CCCCCCCCCCCCCCCCCC)CCCCCCCCCCCCCCCCCC, with 0.277 ± 0.036; and `C[C@H]1CC[C@@H](C)CC1` [cis-1,4-dimethylcyclohexane] + CCCCCCCCCCCCCCCCCCC(CCCCCCCCCCCCCCCCCC)CCCCC(CCCCCCCCCCCCCCCCCC)CCCCCCCCCCCCCCCCCC, with 0.294 ± 0.036.
Same read-out and setting: then `C1CC[C@H]2CCCC[C@H]2C1` [cis-decahydronaphthalene] + CCCCCCCCCCCCCCCCCCC(CCCCCCCCCCCCCCCCCC)CCCCC(CCCCCCCCCCCCCCCCCC)CCCCCCCCCCCCCCCCCC, with 0.278 ± 0.036.
Same read-out and setting: then `C1CCCCCCCCC1` [cyclodecane] + CCCCCCCCCCCCCCCCCCC(CCCCCCCCCCCCCCCCCC)CCCCC(CCCCCCCCCCCCCCCCCC)CCCCCCCCCCCCCCCCCC, with 0.281 ± 0.036; and `C1CCCCCC1` [cycloheptane] + CCCCCCCCCCCCCCCCCCC(CCCCCCCCCCCCCCCCCC)CCCCC(CCCCCCCCCCCCCCCCCC)CCCCCCCCCCCCCCCCCC, with 0.257 ± 0.036; and `C1CCCCC1` [cyclohexane] + CCCCCCCCCCCCCCCCCCC(CCCCCCCCCCCCCCCCCC)CCCCC(CCCCCCCCCCCCCCCCCC)CCCCCCCCCCCCCCCCCC, with 0.251 ± 0.036.
`C1=CCCCC1` [cyclohexene] + CCCCCCCCCCCCCCCCCCC(CCCCCCCCCCCCCCCCCC)CCCCC(CCCCCCCCCCCCCCCCCC)CCCCCCCCCCCCCCCCCC: the activity coefficient worked out at 0.244 ± 0.036.
Take `C1CCCCCCC1` [cyclooctane] + CCCCCCCCCCCCCCCCCCC(CCCCCCCCCCCCCCCCCC)CCCCC(CCCCCCCCCCCCCCCCCC)CCCCCCCCCCCCCCCCCC: the activity coefficient was 0.264 ± 0.036.

The data set is the same for the next values; noted with them: 403.15 K; 101 kPa; Liquid; Chromatography; x1 = 0.
As for `c1ccccc1` [benzene] + CCCCCCCCCCCCCCCCCCC(CCCCCCCCCCCCCCCCCC)CCCCC(CCCCCCCCCCCCCCCCCC)CCCCCCCCCCCCCCCCCC, the activity coefficient stood at 0.263 ± 0.036.
Consider `CCCCc1ccccc1` [butylbenzene] + CCCCCCCCCCCCCCCCCCC(CCCCCCCCCCCCCCCCCC)CCCCC(CCCCCCCCCCCCCCCCCC)CCCCCCCCCCCCCCCCCC, for which the activity coefficient was 0.359 ± 0.035.
Still for that read-out and setting: the result for `C[C@@H]1CCCC[C@@H]1C` [cis-1,2-dimethylcyclohexane] + CCCCCCCCCCCCCCCCCCC(CCCCCCCCCCCCCCCCCC)CCCCC(CCCCCCCCCCCCCCCCCC)CCCCCCCCCCCCCCCCCC reads 0.279 ± 0.036; that for `C[C@H]1CC[C@@H](C)CC1` [cis-1,4-dimethylcyclohexane] + CCCCCCCCCCCCCCCCCCC(CCCCCCCCCCCCCCCCCC)CCCCC(CCCCCCCCCCCCCCCCCC)CCCCCCCCCCCCCCCCCC, 0.296 ± 0.036.
`C1CC[C@H]2CCCC[C@H]2C1` [cis-decahydronaphthalene] + CCCCCCCCCCCCCCCCCCC(CCCCCCCCCCCCCCCCCC)CCCCC(CCCCCCCCCCCCCCCCCC)CCCCCCCCCCCCCCCCCC: the activity coefficient came out at 0.28 ± 0.036.
The same measure, in the same setting: the result for `C1CCCCCCCCC1` [cyclodecane] + CCCCCCCCCCCCCCCCCCC(CCCCCCCCCCCCCCCCCC)CCCCC(CCCCCCCCCCCCCCCCCC)CCCCCCCCCCCCCCCCCC reads 0.283 ± 0.036; that for `C1CCCCCC1` [cycloheptane] + CCCCCCCCCCCCCCCCCCC(CCCCCCCCCCCCCCCCCC)CCCCC(CCCCCCCCCCCCCCCCCC)CCCCCCCCCCCCCCCCCC, 0.256 ± 0.036; that for `C1CCCCC1` [cyclohexane] + CCCCCCCCCCCCCCCCCCC(CCCCCCCCCCCCCCCCCC)CCCCC(CCCCCCCCCCCCCCCCCC)CCCCCCCCCCCCCCCCCC, 0.246 ± 0.036.
On to `C1=CCCCC1` [cyclohexene] + CCCCCCCCCCCCCCCCCCC(CCCCCCCCCCCCCCCCCC)CCCCC(CCCCCCCCCCCCCCCCCC)CCCCCCCCCCCCCCCCCC, for which the activity coefficient is 0.243 ± 0.036.
On the same count and under the same terms, the result for `C1CCCCCCC1` [cyclooctane] + CCCCCCCCCCCCCCCCCCC(CCCCCCCCCCCCCCCCCC)CCCCC(CCCCCCCCCCCCCCCCCC)CCCCCCCCCCCCCCCCCC reads 0.265 ± 0.036.

Staying with this data set, now noted: 418.15 K; 101 kPa; Liquid; Chromatography; x1 = 0.
Consider `c1ccccc1` [benzene] + CCCCCCCCCCCCCCCCCCC(CCCCCCCCCCCCCCCCCC)CCCCC(CCCCCCCCCCCCCCCCCC)CCCCCCCCCCCCCCCCCC, for which the activity coefficient turned out to be 0.26 ± 0.036.
In the case of `CCCCc1ccccc1` [butylbenzene] + CCCCCCCCCCCCCCCCCCC(CCCCCCCCCCCCCCCCCC)CCCCC(CCCCCCCCCCCCCCCCCC)CCCCCCCCCCCCCCCCCC, the activity coefficient worked out at 0.358 ± 0.035.
The same measure, in the same setting: the result for `C[C@@H]1CCCC[C@@H]1C` [cis-1,2-dimethylcyclohexane] + CCCCCCCCCCCCCCCCCCC(CCCCCCCCCCCCCCCCCC)CCCCC(CCCCCCCCCCCCCCCCCC)CCCCCCCCCCCCCCCCCC reads 0.28 ± 0.036; that for `C[C@H]1CC[C@@H](C)CC1` [cis-1,4-dimethylcyclohexane] + CCCCCCCCCCCCCCCCCCC(CCCCCCCCCCCCCCCCCC)CCCCC(CCCCCCCCCCCCCCCCCC)CCCCCCCCCCCCCCCCCC, 0.296 ± 0.036.
`C1CC[C@H]2CCCC[C@H]2C1` [cis-decahydronaphthalene] + CCCCCCCCCCCCCCCCCCC(CCCCCCCCCCCCCCCCCC)CCCCC(CCCCCCCCCCCCCCCCCC)CCCCCCCCCCCCCCCCCC: the activity coefficient came out at 0.275 ± 0.036.
Take `C1CCCCCCCCC1` [cyclodecane] + CCCCCCCCCCCCCCCCCCC(CCCCCCCCCCCCCCCCCC)CCCCC(CCCCCCCCCCCCCCCCCC)CCCCCCCCCCCCCCCCCC: the activity coefficient amounted to 0.287 ± 0.036.
Still for that read-out and setting: the result for `C1CCCCCC1` [cycloheptane] + CCCCCCCCCCCCCCCCCCC(CCCCCCCCCCCCCCCCCC)CCCCC(CCCCCCCCCCCCCCCCCC)CCCCCCCCCCCCCCCCCC reads 0.253 ± 0.036; that for `C1CCCCC1` [cyclohexane] + CCCCCCCCCCCCCCCCCCC(CCCCCCCCCCCCCCCCCC)CCCCC(CCCCCCCCCCCCCCCCCC)CCCCCCCCCCCCCCCCCC, 0.245 ± 0.036; that for `C1=CCCCC1` [cyclohexene] + CCCCCCCCCCCCCCCCCCC(CCCCCCCCCCCCCCCCCC)CCCCC(CCCCCCCCCCCCCCCCCC)CCCCCCCCCCCCCCCCCC, 0.241 ± 0.036.
Same read-out and setting: the result for `C1CCCCCCC1` [cyclooctane] + CCCCCCCCCCCCCCCCCCC(CCCCCCCCCCCCCCCCCC)CCCCC(CCCCCCCCCCCCCCCCCC)CCCCCCCCCCCCCCCCCC reads 0.262 ± 0.036.

Still in this data set, the particulars now being: 433.15 K; 101 kPa; Liquid; Chromatography; x1 = 0.
For the compound `c1ccccc1` [benzene] + CCCCCCCCCCCCCCCCCCC(CCCCCCCCCCCCCCCCCC)CCCCC(CCCCCCCCCCCCCCCCCC)CCCCCCCCCCCCCCCCCC, the activity coefficient turned out to be 0.258 ± 0.036.
Turning to `CCCCc1ccccc1` [butylbenzene] + CCCCCCCCCCCCCCCCCCC(CCCCCCCCCCCCCCCCCC)CCCCC(CCCCCCCCCCCCCCCCCC)CCCCCCCCCCCCCCCCCC, the activity coefficient was found to be 0.354 ± 0.035.
On the same count and under the same terms, the result for `C[C@@H]1CCCC[C@@H]1C` [cis-1,2-dimethylcyclohexane] + CCCCCCCCCCCCCCCCCCC(CCCCCCCCCCCCCCCCCC)CCCCC(CCCCCCCCCCCCCCCCCC)CCCCCCCCCCCCCCCCCC reads 0.285 ± 0.036; that for `C[C@H]1CC[C@@H](C)CC1` [cis-1,4-dimethylcyclohexane] + CCCCCCCCCCCCCCCCCCC(CCCCCCCCCCCCCCCCCC)CCCCC(CCCCCCCCCCCCCCCCCC)CCCCCCCCCCCCCCCCCC, 0.3 ± 0.036.
Same read-out and setting: the result for `C1CC[C@H]2CCCC[C@H]2C1` [cis-decahydronaphthalene] + CCCCCCCCCCCCCCCCCCC(CCCCCCCCCCCCCCCCCC)CCCCC(CCCCCCCCCCCCCCCCCC)CCCCCCCCCCCCCCCCCC reads 0.279 ± 0.036; that for `C1CCCCCCCCC1` [cyclodecane] + CCCCCCCCCCCCCCCCCCC(CCCCCCCCCCCCCCCCCC)CCCCC(CCCCCCCCCCCCCCCCCC)CCCCCCCCCCCCCCCCCC, 0.288 ± 0.036.
Still for that read-out and setting: then `C1CCCCCC1` [cycloheptane] + CCCCCCCCCCCCCCCCCCC(CCCCCCCCCCCCCCCCCC)CCCCC(CCCCCCCCCCCCCCCCCC)CCCCCCCCCCCCCCCCCC, with 0.255 ± 0.036.
Regarding `C1CCCCC1` [cyclohexane] + CCCCCCCCCCCCCCCCCCC(CCCCCCCCCCCCCCCCCC)CCCCC(CCCCCCCCCCCCCCCCCC)CCCCCCCCCCCCCCCCCC, the activity coefficient worked out at 0.247 ± 0.036.
Consider `C1=CCCCC1` [cyclohexene] + CCCCCCCCCCCCCCCCCCC(CCCCCCCCCCCCCCCCCC)CCCCC(CCCCCCCCCCCCCCCCCC)CCCCCCCCCCCCCCCCCC, for which the activity coefficient was 0.243 ± 0.036.
The same measure, in the same setting: the result for `C1CCCCCCC1` [cyclooctane] + CCCCCCCCCCCCCCCCCCC(CCCCCCCCCCCCCCCCCC)CCCCC(CCCCCCCCCCCCCCCCCC)CCCCCCCCCCCCCCCCCC reads 0.264 ± 0.036.

The record behind these values is the NIST ThermoML archive (doi:10.1016/j.fluid.2006.07.015).
